Values after ≈ are worked out from the molar mass of the structure shown.
Experiments:
[1] = Solubility test in PBS (saturated solution, HPLC external standard); format: physicochemical; settings: shaking at 37 °C for 4 h, supernatant by HPLC
Experimental: Since the solubility of the drug directly affects the dissolution and oral bioavailability of the drug preparation, the inventor investigated the solubility of the honokiol crystal forms A, B and C in PBS. Preparing respective saturated solutions of the honokiol crystal forms A, B and C, shaking at 37 °C for 4 h, and centrifuging and transferring the supernatant into a high performance liquid chromatograph. At the same time, preparing a standard solution of the honokiol (source: China Institutes for Food and Drug Control, Batch No.: 110730-201915, ID: EH2H-BMTW), and using the external standard method for quantification.

[2] = Stress tests (high temperature, high humidity, high-light irradiation), related substances by HPLC; format: physicochemical; settings: for purity after the high humidity test: high humidity (relative humidity 92.5%, 25° C.); for purity after the high temperature test: high temperature (60° C.); for purity after intense light / high-light irradiation test: high-light irradiation (illuminance 45001×+5001×)
Experimental: Treating the honokiol crystal forms A, B and C under high temperature (60° C.), high humidity (relative humidity 92.5%, 25° C.) and high-light irradiation (illuminance 45001×+5001×), respectively, diluting with methanol, and investigating the changes of related substances through testing with HPLC.

Row | solubility [1] | purity before the stress test [2] | purity after the high humidity test [2] | purity after the high temperature test [2] | purity after intense light / high-light irradiation test [2] | solubility at 4 h ([1]; PBS, 37 °C, aqueous buffer, thermodynamic from solid) | SMILES
1 | 41.35 µg/mL (≈ 155 µM) | 99.83% | 99.67% | 99.63% | 99.64% |  | C=CCc1ccc(O)c(-c2ccc(O)c(CC=C)c2)c1 [honokiol crystal form A, 3′,5-di-2-propenyl-1,1′-biphenyl-2,4′-diphenol]
2 |  | 99.88% | 99.70% | 99.70% | 99.60% | 43.7 µg/mL (≈ 164 µM) | C=CCc1ccc(O)c(-c2ccc(O)c(CC=C)c2)c1 [honokiol crystal form B, 3′,5-di-2-propenyl-1,1′-biphenyl-2,4′-diphenol]
3 | 48.12 µg/mL (≈ 181 µM) | 99.86% | 99.59% | 99.36% | 99.31% |  | C=CCc1ccc(O)c(-c2ccc(O)c(CC=C)c2)c1 [honokiol crystal form C, 3′,5-di-2-propenyl-1,1′-biphenyl-2,4′-diphenol]
